Data: patent US20210284691A1, “CBX8 CHROMDOMAIN INHIBITORS AND THE USES THEREOF” (Purdue Research Foundation, priority 2019, published 2021)
Where two headings read alike, the source gives them in different places. One block for each compound: values may come before it. Square brackets hold non-standard residues; d marks the D form. Peptide text beside a SMILES is read from it. * marks the point of attachment. ξ: configuration not given here. Isoxazole3carbonyl(5-Me) = Cc1cc(C(=O)*)no1; Tyr(3-Cl) = N[C@@H](Cc1ccc(O)c(Cl)c1)C(=O)O; Benzoyl(4-OPh) = O=C(c1ccc(Oc2ccccc2)cc1)*; Benzoyl(4-Ph) = O=C(c1ccc(-c2ccccc2)cc1)*; Lys(Me3) = C[N+](C)(C)CCCC[C@H](N)C(=O)O; Gly(3-thienyl) = N[C@H](C(=O)O)c1ccsc1; Lys(Et2) = CCN(CC)CCCC[C@H](N)C(=O)O; Gly(cPent) = N[C@H](C(=O)O)C1CCCC1; Gly(cPr) = N[C@H](C(=O)O)C1CC1; ξIle = CC[C@H](C)C(N)C(=O)O; NH(propargyl) = C#CCN*

Tests used:
CBX8 ChD [1] = molecular target: T1, CBX8 ChD (Homo sapiens, UniProt Q9HC52); experiment: Competitive fluorescence polarization (FP) assay; assay type: binding
T1 construct: CBX chromodomain constructs; host or cells: E. coli BL21 CodonPlus RIL
T1 sequence (Q9HC52 11-69 limits assumed): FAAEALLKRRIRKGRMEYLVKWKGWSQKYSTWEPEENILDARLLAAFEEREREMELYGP
Protocol: (§1) CBX chromodomain constructs (addgene plasmid #25158 (CBX2), #25237 (CBX4), #25296 (CBX6), #25241 (CBX7) and #62514 (CBX8, provided by Cheryl Arrowsmith), Kaustov et al.) were transformed into chemically competent BL21 CodonPlus RIL E. coli cells (Stratagene, La Jolla, Calif.) as N-terminal His6-tagged proteins. Bacterial growth was completed at 37° C. in LB media to OD600=2.0, followed by reducing the temperature to 16° C. over 30-60 min and induced with 1 mM IPTG for 16 h. Cells were collected by centrifugation at 6000 rpm for 20 min and resuspended in ChD binding buffer (20 mM Tris, pH 8, 150 mM NaCl, 0.01% Tween-20, 20 mM imidazole) with 1.0 mM PMSF. Bacteria pellets were stored at −80° C. until needed. Pellets were thawed on ice for 10 min in ChD binding buffer, and shaked at 4° C. supplemented with 100 μg/mL lysozyme, 1 mg/mL CHAPS and 1 mM PMSF, for 30 min. Cells were subsequently lysed by sonication (15 W, 30 s on, followed by 30 s off, twice, followed by 20 W for 1 min). The solubilized fraction was collected by centrifugation at 15000 rpm for 40 min at 4° C. Meanwhile, Ni-NTA Agarose resin (QIAGEN, Venlo, Netherlands) was washed with H2O and equilibrated with ChD binding buffer. The soluble fraction was incubated with the prewashed Ni-NTA agarose resin at 4° C. for 2 h. The resin was then washed 3× with ChD purification buffer (20 mM Tris, pH 8, 150 mM NaCl, 0.01% Tween-20, 1 mM PMSF). Proteins were eluted by the addition of 0.5 M imidazole to ChD purification buffer. The elution was diluted with 30% glycerol, flash frozen, and stored at −80° C. until needed. Protein purity was assessed by SDS-PAGE and concentration was determined by the Pierce 660 kit (Thermo Scientific).
(§2) Competitive Fluorescence polarization (FP) assay of PSL hits against CBX6 ChD, CBX7 ChD and CBX8 ChD. FP was measured by titration of CBX ChDs to a FITC-labelled probe as previously reported (Simhadri et al.). Binding and competition FP assays were performed in black 384-well plates with optical bottoms. The protein concentrations used were selected based on the reported relative affinity of the CBX ChD protein for the FITC probes. The FITC-labeled probe was kept constant at 100 nM with 1 μM CBX6, 0.4 μM CBX7 or 4 μM CBX8 with varying amounts of peptide by 2-fold series dilutions, from 500 μM as highest peptide concentration to 0.488 μM as the lowest. Assays were performed for each peptide in four replicates.

CBX8 ChD [2] = molecular target: T1, CBX8 ChD; experiment: Direct fluorescence polarization (FP) binding assay
Protocol: as §1, with “Bacterial” for “CBX chromodomain constructs (addgene plasmid #25158 (CBX2), #25237 (CBX4), #25296 (CBX6), #25241 (CBX7) and #62514 (CBX8, provided by Cheryl Arrowsmith), Kaustov et al.) were transformed into chemically competent BL21 CodonPlus RIL E. coli cells (Stratagene, La Jolla, Calif.) as N-terminal His6-tagged proteins. Bacterial”
Direct fluorescence polarization (FP) binding assay of PSL hits against PcG CBX ChDs. FP assays were conducted as above with slight modifications. Alkyne peptides described above were conjugated with a fluorescein group(5-/6-FAM) through copper catalyzed click reaction as previously described. The FAM-labeled peptide was kept constant at 100 nM. The CBX ChD proteins were titrated by 2-fold series dilutions in the assays. The highest protein concentrations, at which FAM-peptide was completely bound, used for each CBX in the direct binding assays depends on the binding affinity of the peptides. Assays were performed for each peptide in four replicates.

CBX6 ChD = molecular target: T2, CBX6 ChD (Homo sapiens, UniProt O95503); experiment: Competitive fluorescence polarization (FP) assay; assay type: binding; conditions: average of quadruplicates ± s.d.
T2 construct: CBX chromodomain constructs; host or cells: E. coli BL21 CodonPlus RIL
T2 sequence (O95503 11-69 limits assumed): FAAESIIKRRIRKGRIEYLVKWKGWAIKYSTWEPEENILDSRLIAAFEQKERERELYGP
Protocol: as §1, §2

CBX7 ChD = molecular target: T3, CBX7 ChD (Homo sapiens, UniProt O95931); experiment: Competitive fluorescence polarization (FP) assay; assay type: binding; conditions: average of quadruplicates ± s.d.
T3 construct: CBX chromodomain constructs; host or cells: E. coli BL21 CodonPlus RIL
T3 sequence (O95931 11-69 limits assumed): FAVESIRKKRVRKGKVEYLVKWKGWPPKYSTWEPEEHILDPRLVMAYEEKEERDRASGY
Protocol: as §1, §2

[3] = test system: H3K27me3, AR, ENO2, N-Myc, CBX2 protein levels; experiment: Western blotting of protein expression in VCaP_NED cells; assay type: cell-based
Source text: FIG. 12A). Neuroendocrine differentiation (NED) of prostate cancer induced by androgen deprivation. Representative pictures of LNCaP cells treated with normal media or charcoal-stripped serum (CSS) media for 6 days to induce neuroendocrine differentiation (LNCaP_NED). FIG. 12B). Transcriptional fold changes of KLK3/TMPRSS2/ENO2/CHGA were quantified normalized to control gene YWHAZ upon CSS media treatment for 6 or 9 days. FIG. 12C). Western blotting of CBX paralogs in LNCaP and LNCaP_NED cells generated from 14-day CSS treatment. FIG. 12D). Cell proliferation of LNCaP_NED following 5 days incubation with 2 or 10 μM SW2_152F. DMSO was used as negative control. FIG. 12E). LNCaP_NED cells were treated with 10 μM SW2_152F for 24 h-96 h. Cell morphology pictures were captured starting from 24 h. Average cell size were plotted at 24 h or 48 h for both DMSO group and compound treated group. FIG. 12F). LNCaP_NED cells were treated with 10 μM or 50 μM SW2_152F for 48 hours. Transcriptional fold change of genes (KLK3/TMPRSS2/AR/CBX2) were normalized to YWHAZ in LNCaP_NED cells with SW2_152F treatment or DMSO. FIG. 12G). LNCaP cells were treated with DMSO. LNCaP_NED cells were treated with DMSO, 10 μM GSK343 or 10 μM SW2_152F for 48 hours. Whole cell lysates were extracted for western blotting. FIG. 12H). LNCaP_NED cells were treated with DMSO or 10 μM SW2_152F for 4 hours before harvest. Binding of H3K27me3 and CBX2 at specific genomic sites (KLK3/TMPRSS2, e: enhancer, p: promoter) were evaluated using chromatin immunoprecipitation-qPCR. For all experiments in the figure, error bars represent SEM n=3 biological replicates, p-values were calculated using two-tailed Student's t-test, *=p<0.05, **=p<0.01, ***=p<0.001, ****=p<0.0001.
In another androgen-sensitive prostate cancer cell line, VCaP, 6 days of androgen deprivation decreases AR protein expression and increases ENO2, N-Myc, H3K27me3 and CBX2 protein expression (FIG. 12G), similar to published findings (Y. Zhang, et al., 2018). Using this NED cell line (VCaP_NED), we tested how addition of EZH2 inhibitor GSK343 or CBX2 inhibitor SW2_152F affects protein expression changes during NED.

[4] = competitive FP, average of quadruplicates ± s.d., read-out: IC50 (μM) CBX8

- IC50 (CBX8 ChD [1]; [4]): 40 ± 8.3 µM
Structure (SMILES): CC[C@H](C)C(NC(=O)[C@@H](NC(=O)c1ccc(-c2ccccc2)cc1)C1CC1)C(=O)N[C@@H](CCCC[N+](C)(C)C)C(=O)N[C@@H](CO)C(N)=O (stereo partly drawn) [SW2_101A] ({Benzoyl(4-Ph)}-[Gly(cPr)][ξIle][Lys(Me3)]S-NH2)

Structure (SMILES): C#CCNC(=O)[C@H](CO)NC(=O)[C@H](CCCCN(CC)CC)NC(=O)C(NC(=O)[C@@H](NC(=O)c1ccc(Oc2ccccc2)cc1)C1CCCC1)[C@@H](C)CC (stereo partly drawn) [SW2_110A] ({Benzoyl(4-OPh)}-[Gly(cPent)][ξIle][Lys(Et2)]S-{NH(propargyl)})
- inhibition of THP1 proliferation compared to DMSO (THP1 cells; 100 μM, after 12 days of treatment): ~80%
- IC50 (THP1 cells; read-out: IC50 for growth inhibition of THP1 cells, 12-day treatment, CellTiter-Glo): 25 ± 1.1 µM
- Kd (CBX8 ChD [2]): ~0.8 µM
- selectivity for CBX8 over all other CBX paralogs in vitro (CBX8 ChD [2]): ≥ 5 fold
- IC50 (μM) CBX6 (CBX6 ChD): ND (Aggreg.)
- IC50 (μM) CBX7 (CBX7 ChD): ND (Aggreg.)
- IC50 (CBX8 ChD [1]): > 7 µM

- IC50 (CBX6 ChD): > 100 µM
- IC50 (CBX7 ChD): > 100 µM
Structure (SMILES): CC[C@H](C)C(NC(=O)[C@@H](NC(=O)c1ccc(Oc2ccccc2)cc1)C1CCCC1)C(=O)N[C@@H](CCCC[N+](C)(C)C)C(=O)N[C@@H](CO)C(N)=O (stereo partly drawn) [SW2_101B] ({Benzoyl(4-OPh)}-[Gly(cPent)][ξIle][Lys(Me3)]S-NH2)

- IC50 (μM) CBX6 (CBX6 ChD): ND (Aggreg.)
- IC50 (μM) CBX7 (CBX7 ChD): ND (Aggreg.)
- IC50 (CBX8 ChD [1]; [4]): > 15 µM
Structure (SMILES): C#CCNC(=O)[C@H](CO)NC(=O)[C@H](CCCCN(CC)CC)NC(=O)C(NC(=O)[C@@H](NC(=O)c1ccc(-c2ccccc2)cc1)c1ccsc1)[C@@H](C)CC (stereo partly drawn) [SW2_104B] ({Benzoyl(4-Ph)}-[Gly(3-thienyl)][ξIle][Lys(Et2)]S-{NH(propargyl)})

Structure (SMILES): CC[C@H](C)[C@H](NC(=O)[C@@H](NC(=O)c1ccc(Oc2ccccc2)cc1)C1CCCC1)C(=O)N[C@@H](CCCCN(CC)CC)C(=O)N[C@@H](CO)C(=O)NCc1cn(CCCCNC(=O)c2ccc3c(c2)C2(OC3=O)c3ccc(O)cc3Oc3cc(O)ccc32)nn1 [SW2_110A-FL]
- selectivity for CBX8 ChD over CBX7 ChD (CBX8 ChD [2]; from Kd values): 20 fold
- selectivity for CBX8 over CBX2 (CBX8 ChD [2]; from Kd values): 5 fold

- IC50 (CBX6 ChD): > 100 µM
- IC50 (CBX8 ChD [1]; [4]): 4 ± 1.1 µM
Structure (SMILES): CC[C@H](C)C(NC(=O)[C@@H](NC(=O)c1ccc(Oc2ccccc2)cc1)C1CC1)C(=O)N[C@@H](CCCC[N+](C)(C)C)C(=O)N[C@@H](CO)C(N)=O (stereo partly drawn) [SW2_101F] ({Benzoyl(4-OPh)}-[Gly(cPr)][ξIle][Lys(Me3)]S-NH2)

- IC50 (μM) CBX6 (CBX6 ChD): ND (Aggreg.)
Structure (SMILES): CC[C@H](C)C(NC(=O)[C@@H](NC(=O)c1ccc(-c2ccccc2)cc1)C1CCCC1)C(=O)N[C@@H](CCCC[N+](C)(C)C)C(=O)N[C@@H](CO)C(N)=O (stereo partly drawn) [SW2_89] ({Benzoyl(4-Ph)}-[Gly(cPent)][ξIle][Lys(Me3)]S-NH2)

- IC50 (μM) CBX6 (CBX6 ChD): ND (Aggreg.)
- IC50 (μM) CBX7 (CBX7 ChD): ND (Aggreg.)
Structure (SMILES): C#CCNC(=O)[C@H](CO)NC(=O)[C@H](CCCCN(CC)CC)NC(=O)[C@@H](NC(=O)[C@@H](NC(=O)c1ccc(Oc2ccccc2)cc1)c1ccsc1)[C@@H](C)CC [SW2-110B] ({Benzoyl(4-OPh)}-[Gly(3-thienyl)]I[Lys(Et2)]S-{NH(propargyl)})

Structure (SMILES): CCCc1cc(C)[nH]c(=O)c1CNC(=O)c1cc(-c2ccnc(N3CCN(C)CC3)c2)cc2c1cnn2C(C)C [GSK343]
- CBX2 protein expression [3]: decrease in CBX2 expression
- H3K27me3 levels ([3]; 10 μM, 48 hours): reduces H3K27me3 levels
- AR, ENO2 and N-Myc expression ([3]; compared to DMSO): increase AR and decrease ENO2 and N-Myc expression

- IC50 (CBX7 ChD): 0.82 ± 0.12 µM
Structure (SMILES): CC[C@H](C)C(NC(=O)[C@@H](NC(=O)[C@H](Cc1ccc(O)c(Cl)c1)NC(=O)c1cc(C)on1)C1CC1)C(=O)N[C@@H](CCCC[N+](C)(C)C)C(=O)N[C@@H](CO)C(N)=O (stereo partly drawn) [SW2_90] ({Isoxazole3carbonyl(5-Me)}-[Tyr(3-Cl)][Gly(cPr)][ξIle][Lys(Me3)]S-NH2)
